# Values quoted from earlier work, collected in US11951104B2 (LIVZON PHARMACEUTICAL GROUP INC, priority 2018, dated 2024).
# Key:
# 5-HT2A receptors = 5-HT2A receptors (Homo sapiens, UniProt P28223); details: background
# 5-HT1A receptors = biological target: T1, 5-HT1A receptors (Homo sapiens, UniProt P08908); details: background
# T1 sequence (P08908 1-422): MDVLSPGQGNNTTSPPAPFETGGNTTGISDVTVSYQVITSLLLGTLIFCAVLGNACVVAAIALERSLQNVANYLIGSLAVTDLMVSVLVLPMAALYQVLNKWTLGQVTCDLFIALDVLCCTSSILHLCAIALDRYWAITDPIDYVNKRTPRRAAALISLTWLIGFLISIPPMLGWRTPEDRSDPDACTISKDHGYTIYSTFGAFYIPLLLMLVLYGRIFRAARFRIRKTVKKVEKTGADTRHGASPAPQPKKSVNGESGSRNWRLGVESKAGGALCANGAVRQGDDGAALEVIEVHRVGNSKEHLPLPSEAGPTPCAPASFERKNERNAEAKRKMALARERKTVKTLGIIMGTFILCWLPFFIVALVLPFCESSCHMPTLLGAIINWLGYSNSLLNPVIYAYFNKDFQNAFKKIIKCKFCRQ
# Sequence of 5-HT2A receptors (P28223 whole entry): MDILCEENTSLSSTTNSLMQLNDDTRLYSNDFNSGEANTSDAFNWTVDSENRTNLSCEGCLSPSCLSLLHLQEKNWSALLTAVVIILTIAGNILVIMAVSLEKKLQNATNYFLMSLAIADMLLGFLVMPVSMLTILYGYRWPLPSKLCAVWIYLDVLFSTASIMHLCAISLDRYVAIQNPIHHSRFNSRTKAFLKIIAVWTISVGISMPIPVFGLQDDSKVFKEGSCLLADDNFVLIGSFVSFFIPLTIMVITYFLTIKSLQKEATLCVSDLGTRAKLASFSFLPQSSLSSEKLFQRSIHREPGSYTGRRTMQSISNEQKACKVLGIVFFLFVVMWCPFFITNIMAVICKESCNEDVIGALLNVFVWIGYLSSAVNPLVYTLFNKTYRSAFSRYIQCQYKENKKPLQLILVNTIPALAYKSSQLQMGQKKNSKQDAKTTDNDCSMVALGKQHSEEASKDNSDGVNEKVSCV
smiles,measurement,setting,value
O=C1CCc2ccc(OCCCCN3CCN(c4cccc(Cl)c4Cl)CC3)cc2N1 [aripiprazole],affinity for 5-HT2A receptors,5-HT2A receptors,high affinity
same,affinity for 5-HT1A receptors,5-HT1A receptors,high affinity
